Measured values from US9588122B2, “Methods of treating cancer sensitive to anti-EGFR therapy and modifying treatment using peroxiredoxin 6 biomarker” (The Board of Trustees of the Leland Stanford Junior …, priority 2013, dated 2017).

Legend:
NSCLC cells = experiment: Biomarker profiles / PRDX6 shedding of treated NSCLC (Example 3); type: cell-based
A431 cells = details: previously shown; read-out: IC50 of paclitaxel in A431 cells; cited from earlier work
A431 = experiment: Dose-dependent change in panel protein levels by western blot; type: cell-based, human; details: for BAG4 protein level change / CAD17 protein level change / CBFB protein level change / Claudin 1 protein level change / ELAVL-1 protein level change / EpCAM protein level change / HSPG2 protein level change / PDCD4 protein level change / PRDX6 protein level change / QARS protein level change / S100A9 protein level change / SERPINE1 protein level change / SNX5 protein level change / TESTICAN2 protein level change / TNFAIP2 protein level change / TROP-2 protein level change: dose-dependent, 16 h; for changes in levels of the 16 validated proteins (immunoblots): erlotinib 100-1,000 nM, paclitaxel 10-100 nM; for BAG4 protein level change: key: (+) for increase; (−) for decrease; N.C.: (N.C) for no change; (~) for not detected; for CAD17 protein level change: key: (+) for increase; (−) for decrease; N.C.: (N.C) for no change; (~) for not detected; for CBFB protein level change: key: (+) for increase; (−) for decrease; N.C.: (N.C) for no change; (~) for not detected; for Claudin 1 protein level change: key: (+) for increase; (−) for decrease; N.C.: (N.C) for no change; (~) for not detected
Procedure: (§1) Lysates were sonicated for 10 minutes, heated at 95° C. for 10 minutes, and centrifuged for 15 minutes at 20,000×g. The supernatant was cleared through a 0.22-micron filter and protein concentration was determined (BCA, BioRad, Hercules, Calif.). Lysates were subject to SDS-PAGE and subsequent immunoblot. For in vivo experiments, mouse tumor pieces from 5 mice were pooled and suspended in RAF buffer and homogenized with a high-speed blender. The homogenate was centrifuged for 5 min at 200×g. The supernatant was sonicated on ice for 2 minutes and centrifuged for 1 hr at 12,000×g. The supernatant (soluble fraction) was cleared through a 0.22-micron filter and processed as above. The pellet (insoluble fraction) was resuspended in RAF buffer with 2% SDS and DTT, heated at 95° C. and sonicated prior to processing.

NSCLC patients = experiment: PRDX6 levels in circulation of NSCLC patients before and after Tarceva; type: in vivo, human
From the text: To validate if this temporal profile is replicated in a clinical setting, the plasma and/or sera from human NSCLC patients was studied before and after Tarceva® (erlotinib) treatment. […] Serum samples from MRN #48 (FIG. 10A) were taken before and after treatment with Tarceva®. […] Plasma samples were obtained before treatment, and at 2 weeks and 4 weeks post initiation of treatment.

H1975 = experiment: Dose-dependent change in panel protein levels by western blot; details: 16 h
Procedure: as §1

H1650 = experiment: as above; details: 16 h
Procedure: as §1

H1975 xenografts = experiment: H1975 xenograft study (Example 2)
A431 xenografts [1] = experiment: A431 xenograft model (Example 1); type: in vivo, mice
From the text: . […] . Control animals received vehicle alone (20 animals).

A431-ZDR tumors = experiment: Gefitinib-resistant A431-ZDR xenograft model (Example 1); type: in vivo, mice; details: treated vs untreated controls
Procedure: Lysates were sonicated for 10 minutes, heated at 95° C. for 10 minutes, and centrifuged for 15 minutes at 20,000×g. The supernatant was cleared through a 0.22-micron filter and protein concentration was determined (BCA, BioRad, Hercules, Calif.). Lysates were subject to SDS-PAGE and subsequent immunoblot. For in vivo experiments, mouse tumor pieces from 5 mice were pooled and suspended in RAF buffer and homogenized with a high-speed blender. The homogenate was centrifuged for 5 min at 200×g. The supernatant was sonicated on ice for 2 minutes and centrifuged for 1 hr at 12,000×g. The supernatant (soluble fraction) was cleared through a 0.22-micron filter and processed as above. The pellet (insoluble fraction) was resuspended in RAF buffer with 2% SDS and DTT, heated at 95° C. and sonicated prior to processing. Serum from 5 mice was pooled and depleted using two MARS-3 columns (Agilent) connected in tandem with HPLC. The unbound fraction was concentrated to a final concentration of 2 mg/ml and processed as above.

A431 xenografts [2] = experiment: A431 subcutaneous xenograft study (Example 2)
H23 = experiment: Dose-dependent change in panel protein levels by western blot; details: 16 h
Procedure: as §1

[3] = patient MRN 9, Pre-Tarceva 1.07 +/− 0.03
[4] = patient MRN 48, Pre-Tarceva 0.27 +/− 0.01
[5] = patient MRN 91, Pre-Tarceva 0.65 +/− 0.09

Compound: CC(=O)O[C@H]1C(=O)[C@@]2(C)[C@H]([C@H](OC(=O)c3ccccc3)[C@]3(O)C[C@H](OC(=O)[C@H](O)[C@@H](NC(=O)c4ccccc4)c4ccccc4)C(C)=C1C3(C)C)[C@]1(OC(C)=O)CO[C@@H]1C[C@@H]2O [paclitaxel]
- shedding of PRDX6 (NSCLC cells; effective paclitaxel treatment on NSCLC): failed to elicit a similar shedding of PRDX6
- IC50 (A431 cells): ~10 nM
- BAG4 protein level change (A431; western blot): N.C.
- CAD17 protein level change (A431; western blot): N.C.
- CBFB protein level change (A431; western blot): N.C.
- Claudin 1 protein level change (A431; western blot): N.C.
- ELAVL-1 protein level change (A431; western blot): N.C.
- EpCAM protein level change (A431; western blot): N.C.
- HSPG2 protein level change (A431; western blot): N.C.
- PDCD4 protein level change (A431; western blot): N.C.
- PRDX6 protein level change (A431; western blot): N.C.
- QARS protein level change (A431; western blot): N.C.
- S100A9 protein level change (A431; western blot): N.C.
- SERPINE1 protein level change (A431; western blot): N.C.
- SNX5 protein level change (A431; western blot): N.C.
- TESTICAN2 protein level change (A431; western blot): N.C.
- TNFAIP2 protein level change (A431; western blot): N.C.
- TROP-2 protein level change (A431; western blot): N.C.
- changes in levels of the 16 validated proteins (immunoblots) (A431): none of the proteins tested demonstrated a change in abundance

Compound: C#Cc1cccc(Nc2ncnc3cc(OCCOC)c(OCCOC)cc23)c1 [erlotinib]
- biomarker profiles by treated NSCLC cells (NSCLC cells; compared with Iressa treated cells, data not shown): the same as Iressa
- circulating PRDX6 profile in patients with positive response (NSCLC patients; at least three patients, pilot data): initial rise in circulating PRDX6 (2-4 weeks post-therapy) followed by a decline in PRDX6 levels by 8 weeks post-therapy
- PRDX6 level in circulation, Post-Tarceva (2 wks.) (NSCLC patients; [3]): 1.63 +/− 0.05 ng PRDX6/Total Protein in circulation
- PRDX6 level in circulation, Post-Tarceva (3.5 to 4 wks.) (NSCLC patients; [3]): 0.33 +/− 0.11 ng PRDX6/Total Protein in circulation
- PRDX6 level in circulation, Post-Tarceva (6.5-8 wks.) (NSCLC patients; [3]): 0.45 +/− 0.05 ng PRDX6/Total Protein in circulation
- PRDX6 level in circulation, Post-Tarceva (2 wks.) (NSCLC patients; [4]): 0.76 +/− 0.08 ng PRDX6/Total Protein in circulation
- PRDX6 level in circulation, Post-Tarceva (3.5 to 4 wks.) (NSCLC patients; [4]): 0.42 +/− 0.02 ng PRDX6/Total Protein in circulation
- PRDX6 level in circulation, Post-Tarceva (3.5 to 4 wks.) (NSCLC patients; [5]): 5.0 +/− 0.3 ng PRDX6/Total Protein in circulation
- PRDX6 level in circulation, Post-Tarceva (6.5-8 wks.) (NSCLC patients; [5]): 0.46 +/− 0.18 ng PRDX6/Total Protein in circulation
- BAG4 protein level change (A431; western blot): +
- CAD17 protein level change (A431; western blot): +
- CBFB protein level change (A431; western blot): +
- Claudin 1 protein level change (A431; western blot): +
- ELAVL-1 protein level change (A431; western blot): +
- EpCAM protein level change (A431; western blot): +
- HSPG2 protein level change (A431; western blot): +
- PDCD4 protein level change (A431; western blot): +
- PRDX6 protein level change (A431; western blot): +
- QARS protein level change (A431; western blot): +
- S100A9 protein level change (A431; western blot): +
- SERPINE1 protein level change (A431; western blot): +
- SNX5 protein level change (A431; western blot): −
- TESTICAN2 protein level change (A431; western blot): +
- TNFAIP2 protein level change (A431; western blot): +
- TROP-2 protein level change (A431; western blot): +
- changes in levels of the 16 validated proteins (immunoblots) (A431): mirrored the effect of gefitinib

Compound: O=c1[nH]c2ccccc2n1C1CCN(Cc2ccc(-c3nc4cc5[nH]cnc5cc4nc3-c3ccccc3)cc2)CC1 [A6730]
- BAG4 protein level change (A431; western blot): +
- CAD17 protein level change (A431; western blot): N.C.
- CBFB protein level change (A431; western blot): +
- Claudin 1 protein level change (A431; western blot): +
- ELAVL-1 protein level change (A431; western blot): N.C.
- EpCAM protein level change (A431; western blot): N.C.
- HSPG2 protein level change (A431; western blot): N.C.
- PDCD4 protein level change (A431; western blot): N.C.
- PRDX6 protein level change (A431; western blot): N.C.
- QARS protein level change (A431; western blot): +
- S100A9 protein level change (A431; western blot): N.C.
- SERPINE1 protein level change (A431; western blot): N.C.
- SNX5 protein level change (A431; western blot): N.C.
- TESTICAN2 protein level change (A431; western blot): N.C.
- TNFAIP2 protein level change (A431; western blot): +
- TROP-2 protein level change (A431; western blot): N.C.

Compound: COc1cccc(-c2cc(=O)c3ccccc3o2)c1N [PD98059]
- Claudin-1 expression (A431; AKT or MAPK pathway inhibition): changes in expression
- panel proteins that showed a change in abundance (A431; AKT or MAPK pathway inhibition): CAD17, PDCD4, S100A9, SERPINE1, and Testican-2
- panel proteins unchanged by treatment (A431; AKT or MAPK pathway inhibition): ELAVL-1, EpCAM, HSPG2, TROP2, and SNX5
- BAG4 protein level change (A431; western blot): N.C.
- CAD17 protein level change (A431; western blot): +
- CBFB protein level change (A431; western blot): N.C.
- Claudin 1 protein level change (A431; western blot): +
- ELAVL-1 protein level change (A431; western blot): N.C.
- EpCAM protein level change (A431; western blot): N.C.
- HSPG2 protein level change (A431; western blot): N.C.
- PDCD4 protein level change (A431; western blot): +
- PRDX6 protein level change (A431; western blot): +
- QARS protein level change (A431; western blot): N.C.
- S100A9 protein level change (A431; western blot): +
- SERPINE1 protein level change (A431; western blot): +
- SNX5 protein level change (A431; western blot): N.C.
- TESTICAN2 protein level change (A431; western blot): +
- TNFAIP2 protein level change (A431; western blot): N.C.
- TROP-2 protein level change (A431; western blot): N.C.

Compound: COc1cc2ncnc(Nc3ccc(F)c(Cl)c3)c2cc1OCCCN1CCOCC1 [gefitinib]
- BAG4 protein level change (H1975): N.C.
- CAD17 protein level change (H1975): N.C.
- CBFB protein level change (H1975): N.C.
- Claudin 1 protein level change (H1975): N.C.
- ELAVL-1 protein level change (H1975): N.C.
- EpCAM protein level change (H1975): N.C.
- HSPG2 protein level change (H1975): N.C.
- PDCD4 protein level change (H1975): N.C.
- PRDX6 protein level change (H1975): N.C.
- S100A9 protein level change (H1975): N.C.
- SERPINE1 protein level change (H1975): N.C.
- SNX5 protein level change (H1975): N.C.
- TESTICAN2 protein level change (H1975): N.C.
- TNFAIP2 protein level change (H1975): N.C.
- TROP-2 protein level change (H1975): N.C.
- BAG4 protein level change (H1650): N.C.
- CAD17 protein level change (H1650): +
- CBFB protein level change (H1650): +
- Claudin 1 protein level change (H1650): +
- ELAVL-1 protein level change (H1650): +
- EpCAM protein level change (H1650): +
- HSPG2 protein level change (H1650): +
- PDCD4 protein level change (H1650): +
- PRDX6 protein level change (H1650): +
- QARS protein level change (H1650): +
- S100A9 protein level change (H1650): N.C.
- SERPINE1 protein level change (H1650): +
- SNX5 protein level change (H1650): N.C.
- TESTICAN2 protein level change (H1650): N.C.
- TNFAIP2 protein level change (H1650): +
- TROP-2 protein level change (H1650): +
- tumor response (tumor volumes) (H1975 xenografts; 50 mg/kg daily oral, vs vehicle): no response
- mean serum PRDX6 levels (H1975 xenografts; after treatment): increased
- PRDX6 levels with respect to treatment (H1975 xenografts; models carrying Iressa-resistant NSCLC xenografts): did not change
- difference in mean change from baseline in serum PRDX6 (H1975 xenografts; vs vehicle, Day 4 (P=0.461), Day 10-14 (P=0.3404)): not statistically significant
- difference in mean change from baseline in serum PRDX6 normalized to tumor volume (H1975 xenografts; vs vehicle, Day 4 (P=0.7922), Day 10-14 (P=0.8849)): not significant
- VAMP3, KLF5, and GLTSCR2 level (A431; 100 nM): marginal increase
- level of all other verified proteins (A431; 100, 500, and 1,000 nM, 16 hrs, western blot): dose-dependent increase
- ELAVL-1 response at higher doses (A431; 500 and 1,000 nM vs 100 nM, 16 hrs, western blot): not amplified at higher doses
- BAG4 protein level change (A431; western blot): +
- CAD17 protein level change (A431; western blot): +
- CBFB protein level change (A431; western blot): +
- Claudin 1 protein level change (A431; western blot): +
- ELAVL-1 protein level change (A431; western blot): +
- EpCAM protein level change (A431; western blot): +
- HSPG2 protein level change (A431; western blot): +
- PDCD4 protein level change (A431; western blot): +
- PRDX6 protein level change (A431; western blot): +
- QARS protein level change (A431; western blot): +
- S100A9 protein level change (A431; western blot): +
- SERPINE1 protein level change (A431; western blot): +
- SNX5 protein level change (A431; western blot): −
- TESTICAN2 protein level change (A431; western blot): +
- TNFAIP2 protein level change (A431; western blot): +
- TROP-2 protein level change (A431; western blot): +
- tumor size and growth (A431 xenografts [1]; 50 mg/kg gefitinib vs untreated): significantly smaller than those in untreated mice and grew at a slower rate
- panel proteins whose in vivo change was concordant with in vitro experiments (A431 xenografts [1]; A431 tumor lysates, immunoblot): 12 of the 16
- tumor growth rates (A431-ZDR tumors): No differences in tumor growth rates
- tumor growth (A431 xenografts [2]; 50 mg/kg daily oral, vs vehicle Day 7 P=0.0102, Day 11 P=0.002, Day 15 P=0.0001): marked arrest in tumor growth
- mean serum PRDX6 levels (A431 xenografts [2]; between Day 0 and Day 15, change vs vehicle P<0.0001): decreased
- tumor PRDX6 (tumor lysates) (A431 xenografts [2]; day 15, vs vehicle, P=0.2185): no statistically significant difference
- difference in mean change from baseline in serum PRDX6 normalized to tumor volume (A431 xenografts [2]; vs vehicle, P=0.0027): statistically significant
- BAG4 protein level change (H23): +
- CAD17 protein level change (H23): +
- CBFB protein level change (H23): N.C.
- Claudin 1 protein level change (H23): N.C.
- ELAVL-1 protein level change (H23): N.C.
- EpCAM protein level change (H23): N.C.
- HSPG2 protein level change (H23): N.C.
- PDCD4 protein level change (H23): N.C.
- PRDX6 protein level change (H23): N.C.
- QARS protein level change (H23): N.C.
- S100A9 protein level change (H23): N.C.
- SERPINE1 protein level change (H23): N.C.
- SNX5 protein level change (H23): N.C.
- TNFAIP2 protein level change (H23): +
- TROP-2 protein level change (H23): N.C.
